# Measurements reported in article PMC8160875 (Molecules, 2021).
# Legend:
# [1] = system: LO2 cells; assay: MTT cytotoxicity assay, normal cell line LO2; assay type: cell-based, human; settings: for IC50: L02, human normal cell line LO2, MTT, average of three determinations; for Selectivity IC50(LO2)/IC50(A549): ratio IC50(LO2)/IC50(A549)
# Description: (§1) Four human tumor cell lines (A549, H1975, NCI-H460, and MCF-7) and human normal cell line LO2 were selected to evaluate the antiproliferative activity of all target compounds in vitro. Olmutinib was used as a positive control. Results are summarized in Table 1, where the values are the average of at least three independent experiments. […] However, the antiproliferative activities of the compounds that were substituted with the anisidine side chain performed better than the cyano group chain.
# [2] = system: NCI-H460 cells; assay: MTT cytotoxicity assay, NCI-H460; assay type: cell-based; settings: Homo sapiens, NCI-H460 cell line, average of three determinations
# Description: as §1
# [3] = system: MCF-7 cells; assay: MTT cytotoxicity assay, MCF-7; assay type: cell-based; settings: Homo sapiens, MCF7, MCF-7 cell line, average of three determinations
# Description: as §1
# [4] = system: A549 cells; assay: MTT cytotoxicity assay, A549; assay type: cell-based; settings: Homo sapiens, A549 cell line, average of three determinations
# Description: as §1
# [5] = system: H1975 cells; assay: MTT cytotoxicity assay, H1975; assay type: cell-based; settings: Homo sapiens, NCI-H1975, H1975 cell line, average of three determinations
# Description: as §1
# [6] = biological target: PI3Kα (Homo sapiens, UniProt P42336); assay: Kinase-Glo Luminescent Kinase Assay, PI3Kα; assay type: biochemical; settings: average of three determinations
# Description: Compounds H7 and H10 had excellent antiproliferative activity and were further screened out for kinase inhibition testing. We evaluated compounds H7 and H10 with EGFR^T790M/L858R kinases and PI3Kα kinases.
# The specific operation was carried out according to our previous research.
# [7] = biological target: EGFR^T790M/L858R (Homo sapiens, UniProt P00533, L858R/T790M); assay: Kinase-Glo Luminescent Kinase Assay, EGFR T790M/L858R; assay type: biochemical; settings: average of three determinations
# Sequence of EGFR^T790M/L858R (P00533 25-1210 T790M/L858R): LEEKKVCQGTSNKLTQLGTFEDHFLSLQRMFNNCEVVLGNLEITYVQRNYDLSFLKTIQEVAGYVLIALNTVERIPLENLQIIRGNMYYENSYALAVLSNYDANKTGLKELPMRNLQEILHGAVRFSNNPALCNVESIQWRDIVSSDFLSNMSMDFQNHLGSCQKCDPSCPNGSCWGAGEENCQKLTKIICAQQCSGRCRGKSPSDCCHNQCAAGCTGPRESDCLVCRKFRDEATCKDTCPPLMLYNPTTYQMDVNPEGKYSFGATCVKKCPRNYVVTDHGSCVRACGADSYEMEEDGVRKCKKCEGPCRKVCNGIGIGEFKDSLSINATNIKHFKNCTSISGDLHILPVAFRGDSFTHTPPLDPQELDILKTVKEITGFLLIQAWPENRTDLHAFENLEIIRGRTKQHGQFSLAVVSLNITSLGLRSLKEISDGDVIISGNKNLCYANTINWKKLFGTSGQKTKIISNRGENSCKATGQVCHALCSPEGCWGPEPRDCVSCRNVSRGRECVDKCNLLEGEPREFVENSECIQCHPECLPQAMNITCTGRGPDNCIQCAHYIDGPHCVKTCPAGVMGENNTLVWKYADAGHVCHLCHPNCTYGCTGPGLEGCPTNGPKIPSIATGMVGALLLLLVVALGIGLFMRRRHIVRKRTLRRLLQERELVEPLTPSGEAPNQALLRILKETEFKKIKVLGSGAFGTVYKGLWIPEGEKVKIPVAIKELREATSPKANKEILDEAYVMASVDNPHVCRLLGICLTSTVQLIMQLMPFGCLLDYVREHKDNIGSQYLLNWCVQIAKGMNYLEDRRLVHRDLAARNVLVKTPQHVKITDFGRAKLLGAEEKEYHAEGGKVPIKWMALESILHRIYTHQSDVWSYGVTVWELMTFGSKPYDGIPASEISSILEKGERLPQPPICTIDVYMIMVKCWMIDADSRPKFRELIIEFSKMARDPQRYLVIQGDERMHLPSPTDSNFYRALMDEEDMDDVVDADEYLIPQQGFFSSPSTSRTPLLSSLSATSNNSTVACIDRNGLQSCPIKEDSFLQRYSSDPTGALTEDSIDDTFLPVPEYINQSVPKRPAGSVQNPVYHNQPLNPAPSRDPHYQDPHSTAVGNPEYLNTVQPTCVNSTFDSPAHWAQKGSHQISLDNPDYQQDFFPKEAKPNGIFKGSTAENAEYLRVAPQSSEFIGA
# Sequence of PI3Kα (P42336 whole entry): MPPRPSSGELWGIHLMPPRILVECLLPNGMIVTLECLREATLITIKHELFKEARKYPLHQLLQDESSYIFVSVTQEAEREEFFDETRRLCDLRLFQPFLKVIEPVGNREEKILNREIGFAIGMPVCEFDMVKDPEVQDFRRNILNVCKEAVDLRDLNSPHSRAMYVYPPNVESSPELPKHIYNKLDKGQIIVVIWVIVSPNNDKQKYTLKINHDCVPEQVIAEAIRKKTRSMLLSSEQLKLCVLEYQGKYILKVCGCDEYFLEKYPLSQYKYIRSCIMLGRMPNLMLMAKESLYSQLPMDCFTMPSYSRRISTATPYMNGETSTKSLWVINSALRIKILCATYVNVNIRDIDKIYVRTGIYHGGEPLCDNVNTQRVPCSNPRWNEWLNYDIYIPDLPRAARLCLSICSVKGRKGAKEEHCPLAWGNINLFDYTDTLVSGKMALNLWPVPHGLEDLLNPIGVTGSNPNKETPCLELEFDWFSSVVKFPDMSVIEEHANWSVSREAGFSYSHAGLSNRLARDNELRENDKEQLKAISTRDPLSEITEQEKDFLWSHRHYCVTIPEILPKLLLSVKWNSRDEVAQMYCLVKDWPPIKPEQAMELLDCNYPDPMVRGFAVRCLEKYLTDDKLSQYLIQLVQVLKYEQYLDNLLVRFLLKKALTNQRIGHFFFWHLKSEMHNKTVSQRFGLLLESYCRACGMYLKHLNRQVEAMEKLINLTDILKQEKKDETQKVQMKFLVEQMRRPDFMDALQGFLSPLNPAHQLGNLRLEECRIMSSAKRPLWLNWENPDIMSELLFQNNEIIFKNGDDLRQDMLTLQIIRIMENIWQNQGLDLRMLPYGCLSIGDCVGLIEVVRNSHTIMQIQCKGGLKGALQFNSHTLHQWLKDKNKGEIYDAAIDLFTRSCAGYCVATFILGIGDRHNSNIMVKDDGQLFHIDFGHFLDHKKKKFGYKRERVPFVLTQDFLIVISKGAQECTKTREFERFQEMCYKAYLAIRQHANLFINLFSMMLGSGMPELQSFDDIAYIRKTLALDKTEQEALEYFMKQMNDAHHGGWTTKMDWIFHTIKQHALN
# Sequence of PI3Kα (P27986 whole entry partner): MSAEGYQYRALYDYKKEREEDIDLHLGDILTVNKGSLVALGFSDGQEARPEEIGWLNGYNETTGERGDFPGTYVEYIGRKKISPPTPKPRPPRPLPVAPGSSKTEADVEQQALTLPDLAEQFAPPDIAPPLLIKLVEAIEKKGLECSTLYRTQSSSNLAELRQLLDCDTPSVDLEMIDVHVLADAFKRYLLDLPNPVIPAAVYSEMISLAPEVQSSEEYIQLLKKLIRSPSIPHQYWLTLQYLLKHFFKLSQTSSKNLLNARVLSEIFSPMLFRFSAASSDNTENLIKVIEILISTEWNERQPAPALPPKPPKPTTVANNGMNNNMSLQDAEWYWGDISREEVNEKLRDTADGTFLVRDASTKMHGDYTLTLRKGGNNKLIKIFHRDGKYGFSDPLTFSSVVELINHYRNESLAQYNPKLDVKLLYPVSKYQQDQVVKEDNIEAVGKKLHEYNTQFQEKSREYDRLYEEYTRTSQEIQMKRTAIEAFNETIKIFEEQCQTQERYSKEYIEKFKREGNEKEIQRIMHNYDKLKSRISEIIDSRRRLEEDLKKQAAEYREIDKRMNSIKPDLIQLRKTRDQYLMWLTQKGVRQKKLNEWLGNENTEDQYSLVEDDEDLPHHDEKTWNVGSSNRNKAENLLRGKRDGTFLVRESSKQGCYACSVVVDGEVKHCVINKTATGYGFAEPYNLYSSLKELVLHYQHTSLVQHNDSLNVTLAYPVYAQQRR
Structure (SMILES),IC50 [1] [µM],Selectivity IC50(LO2)/IC50(A549) [1],IC50 [2] [µM],IC50 [3] [µM],IC50 [4] [µM],IC50 [5] [µM],melting point [°C],IC50 [6] [µM],IC50 [7] [nM],Selectivity (A549 vs LO2) relative to that of olmutinib ([1]; fold of the selectivity of the lead compound olmutinib)
"CCN(CC)Cc1ccc(-c2nc(Oc3cccc(NC(=O)/C=C/C(C)C)c3)nc(N3CCOCC3)n2)s1 [Compound H16, (E)-N-(3-((4-(5-((diethylamino)methyl)thiophen-2-yl)-6-morpholino-1,3,5-triazin-2-yl)oxy)phenyl)-4-methylpent-2-enamide]",> 100,>2.77,30.3 ± 1.68,51.8 ± 1.27,36.1 ± 1.61,15.6 ± 2.55,,,,
"CCC/C=C/C(=O)Nc1cccc(Oc2cc(-c3cccs3)nc(Nc3cccc(C#N)c3)n2)c1 [Compound H4, (E)-N-(3-((2-((3-cyanophenyl)amino)-6-(thiophen-2-yl)pyrimidin-4-yl)oxy)phenyl)hex-2-enamide]",> 100,>2.70,23.4 ± 1.49,27 ± 1.63,37.1 ± 1.19,25.1 ± 1.3,209.6 to 211.4,,,
"CCN(CC)Cc1ccc(-c2nc(Oc3cccc(NC(=O)C=C(C)C)c3)nc(N3CCOCC3)n2)s1 [Compound H15, N-(3-((4-(5-((diethylamino)methyl)thiophen-2-yl)-6-morpholino-1,3,5-triazin-2-yl)oxy)phenyl)-3-methylbut-2-enamide]",> 100,>4.68,62.4 ± 2.94,38.5 ± 1.78,21.4 ± 1.58,19.5 ± 1.55,215.2 to 217.1,,,
"CC(C)/C=C/C(=O)Nc1cccc(Oc2nc(-c3ccc(CN(C)C)s3)nc(N3CCOCC3)n2)c1 [Compound H12, (E)-N-(3-((4-(5-((dimethylamino)methyl)thiophen-2-yl)-6-morpholino-1,3,5-triazin-2-yl)oxy)phenyl)-4-methylpent-2-enamide]",> 100,>4.57,23.8 ± 2.05,64 ± 1.8,21.9 ± 1.54,13.6 ± 1.94,199.7 to 201.3,,,
"CC(C)/C=C/C(=O)Nc1cccc(Oc2cc(-c3cccs3)nc(Nc3cccc(C#N)c3)n2)c1 [Compound H6, (E)-N-(3-((2-((3-cyanophenyl)amino)-6-(thiophen-2-yl)pyrimidin-4-yl)oxy)phenyl)-4-methylpent-2-enamide]",> 100,>6.43,18.1 ± 0.71,17.7 ± 1.01,15.6 ± 0.81,11.9 ± 1.11,223.1 to 225.4,,,
"CC(C)=CC(=O)Nc1cccc(Oc2cc(-c3cccs3)nc(Nc3cccc(C#N)c3)n2)c1 [Compound H3, N-(3-((2-((3-cyanophenyl)amino)-6-(thiophen-2-yl)pyrimidin-4-yl)oxy)phenyl)-3-methylbut-2-enamide]",> 100,>3.61,25.8 ± 1.38,35.8 ± 1.64,27.7 ± 1.24,21.9 ± 1.33,215.5 to 218.7,,,
"C/C=C/C(=O)Nc1cccc(Oc2nc(-c3ccc(CN(CC)CC)s3)nc(N3CCOCC3)n2)c1 [Compound H14, (E)-N-(3-((4-(5-((diethylamino)methyl)thiophen-2-yl)-6-morpholino-1,3,5-triazin-2-yl)oxy)phenyl)but-2-enamide]",> 100,,46.2 ± 1.43,41.6 ± 1.61,20.6 ± 2.3,17.8 ± 1.34,,,,
"COc1cccc(Nc2nc(Oc3cccc(NC(=O)/C=C/C(C)C)c3)cc(-c3cccs3)n2)c1 [Compound H8, (E)-N-(3-((2-((3-methoxyphenyl)amino)-6-(thiophen-2-yl)pyrimidin-4-yl)oxy)phenyl)-4-methylpent-2-enamide]",> 100,>5.26,24.1 ± 1.28,49.1 ± 2.13,19 ± 1.34,21.5 ± 1.21,217.9 to 219.1,,,
"C/C=C/C(=O)Nc1cccc(Oc2nc(-c3ccc(CN(C)C)s3)nc(N3CCOCC3)n2)c1 [Compound H10, (E)-N-(3-((4-(5-((dimethylamino)methyl)thiophen-2-yl)-6-morpholino-1,3,5-triazin-2-yl)oxy)phenyl)but-2-enamide]",> 100,>29.76,10.7 ± 2.02,13.1 ± 1.36,3.36 ± 1.59,1.16 ± 1.53,202.4 to 203.7,8.56,250,about 5 times
"C=CC(=O)Nc1cccc(Oc2nc(-c3ccc(CN(C)C)s3)nc(N3CCOCC3)n2)c1 [Compound H9, N-(3-((4-(5-((dimethylamino)methyl)thiophen-2-yl)-6-morpholino-1,3,5-triazin-2-yl)oxy)phenyl)acrylamide]",> 100,,28.2 ± 1.78,53.9 ± 1.73,23.5 ± 1.43,12.8 ± 1.25,,,,
"C=C(F)C(=O)Nc1cccc(Oc2cc(-c3cccs3)nc(Nc3cccc(C#N)c3)n2)c1 [Compound H5, N-(3-((2-((3-cyanophenyl)amino)-6-(thiophen-2-yl)pyrimidin-4-yl)oxy)phenyl)-2-fluoroacrylamide]",> 100,,> 100,> 100,> 100,> 100,222.9 to 226.8,,,
"C/C=C/C(=O)Nc1cccc(Oc2cc(-c3cccs3)nc(Nc3cccc(OC)c3)n2)c1 [Compound H7, (E)-N-(3-((2-((3-methoxyphenyl)amino)-6-(thiophen-2-yl)pyrimidin-4-yl)oxy)phenyl)but-2-enamide]",> 100,>22.88,13.5 ± 0.52,19.2 ± 1.12,4.37 ± 0.5,4.59 ± 0.46,231.7 to 234.3,> 10,630,
"C/C=C/C(=O)Nc1cccc(Oc2cc(-c3cccs3)nc(Nc3cccc(C#N)c3)n2)c1 [Compound H2, (E)-N-(3-((2-((3-cyanophenyl)amino)-6-(thiophen-2-yl)pyrimidin-4-yl)oxy)phenyl)but-2-enamide]",87.9 ± 1.67,8.38,16.4 ± 0.98,14.6 ± 1.19,10.5 ± 1.17,12.5 ± 1.09,201.2 to 205.9,,,
"CC(C)=CC(=O)Nc1cccc(Oc2nc(-c3ccc(CN(C)C)s3)nc(N3CCOCC3)n2)c1 [Compound H11, N-(3-((4-(5-((dimethylamino)methyl)thiophen-2-yl)-6-morpholino-1,3,5-triazin-2-yl)oxy)phenyl)-3-methylbut-2-enamide]",> 100,>7.39,19.7 ± 1.16,25.8 ± 1.31,13.5 ± 1.13,5.57 ± 1.53,,,,
"C=CC(=O)Nc1cccc(Oc2cc(-c3cccs3)nc(Nc3cccc(C#N)c3)n2)c1 [Compound H1, N-(3-((2-((3-cyanophenyl)amino)-6-(thiophen-2-yl)pyrimidin-4-yl)oxy)phenyl)acrylamide]",> 100,>22.57,13.1 ± 1.17,19 ± 1.71,4.43 ± 0.5,9.64 ± 1.01,,,,
"C=C(C)C(=O)Nc1cccc(Oc2nc(-c3ccc(CN(CC)CC)s3)nc(N3CCOCC3)n2)c1 [Compound H13, N-(3-((4-(5-((diethylamino)methyl)thiophen-2-yl)-6-morpholino-1,3,5-triazin-2-yl)oxy)phenyl)methacrylamide]",> 100,,54.5 ± 2.86,32.5 ± 1.73,23.4 ± 1.89,21.5 ± 1.21,,,,
